Key:
[1] = Storage stability rapid test of treated inorganic fertilizers (loss of nitrification inhibitor); type: physicochemical; settings: on ammonium sulfate nitrate carrier fertilizer; 4 weeks at 30° C., 40 to 50% relative atmospheric humidity, approx. 1.2 m/s air velocity
Method: The carrier fertilizer used was ammonium sulfate nitrate (ASN). 2 g of pyrazole were dissolved in a little water, and if desired (see Table I) the solution was mixed with a stoichiometric amount of phosphoric acid (1:1) and with from 1 to 10 g of polyacrylic acid or polyphosphoric acid. […] of the carrier fertilizer in the form of granules were prewarmed to approximately 50° C. and slowly sprayed onto a turntable with the mixture containing the pyrazole compound. To accelerate the drying, drying was carried out with hot air, either at the end of the spraying or after interruption of the spraying.
The storage stability of the treated inorganic fertilizers was determined in a rapid test in which the nitrification-inhibited inorganic fertilizers were stored in a ventilated warming cabinet for 4 weeks at 30° C., from 40 to 50% relative atmospheric humidity and approximately 1.2 m/s air velocity. The concentration of nitrification inhibitor on the inorganic fertilizer was determined before and after storage and the loss of nitrification inhibitor determined in percent. Approximately 10 to 30 g of treated inorganic fertilizer were stored in each case. The concentration of pyrazole compound as nitrification inhibitor in this case was from 0.05% by weight to 0.2% by weight at the start of the investigation, based on the treated inorganic fertilizer.

nitrification [2] = assay: Nitrification inhibiting effect of different pyrazoles; design: concentration or dose not given beside the values
nitrification [3] = assay: Field tests: NO3- and NH4-N-amounts in soil; type: in vivo; settings: for Ø NH4-N amount in soil / Ø NO3-N amount in soil: n = 5, locations 1-5; for biological effectiveness (in words): field tests, results of table 1, reduced amounts of the active substance versus DCD
Method: The biological effectiveness of 4-chloro-3-methylpyrazole (4 Cl-3MP) and 3,4-dimethylpyrazole (3,4-DMP) in comparison with DCD and the control was tested in multiple field tests in different environments by means of the features “nitrate content in the basis of the stem”, “NO3— and NH4—N-content in the soil” as well as “grain produce”.
The standard methods used in agricultural tests were applied to the laying-out, probing, harvesting and evaluation of the field tests.
The analysis of the plant and soil samples followed standard procedures. The remaining measures undertaken in the production, e.g. plant protection, were in accordance with good agricultural practice and were applied uniformly.

rape plants = assay: Field tests: NO3 amount in the basis of the stem of rape plants; type: in vivo; settings: n = 5, locations 1-5
Method: (§1) The biological effectiveness of 4-chloro-3-methylpyrazole (4 Cl-3MP) and 3,4-dimethylpyrazole (3,4-DMP) in comparison with DCD and the control was tested in multiple field tests in different environments by means of the features “nitrate content in the basis of the stem”, “NO3— and NH4—N-content in the soil” as well as “grain produce”. The standard methods used in agricultural tests were applied to the laying-out, probing, harvesting and evaluation of the field tests. The analysis of the plant and soil samples followed standard procedures. The remaining measures undertaken in the production, e.g. plant protection, were in accordance with good agricultural practice and were applied uniformly. As a consequence of this treatment the nitrate consumption of the plants is reduced (compare NO3-content in the basis of the stem of rape plants, table 2) and the produce is enhanced (compare grain produce of winter wheat, tables 3a and 3b).

winter wheat = assay: Field tests: grain produce of winter wheat; type: in vivo
Method: as §1

Structure (SMILES) | Loss in percent (loss of nitrification inhibitor during storage) [1] [%] | % inhibition per applied amount of ammonium (nitrification [2]; column head 1) [%] | % inhibition per applied amount of ammonium (nitrification [2]; column head 2) [%] | % inhibition per applied amount of ammonium (nitrification [2]; column head 4) [%] | % inhibition per applied amount of ammonium (nitrification [2]; column head 6) [%] | % inhibition per applied amount of ammonium (nitrification [2]; column head 8) [%] | Ø NH4-N amount in soil (nitrification [3]; 2 weeks after application) [kg/ha] | Ø NO3-N amount in soil (nitrification [3]; 2 weeks after application) [kg/ha] | Ø NH4-N amount in soil (nitrification [3]; 4 weeks after application) [kg/ha] | Ø NO3-N amount in soil (nitrification [3]; 4 weeks after application) [kg/ha] | Ø NH4-N amount in soil (nitrification [3]; 6 weeks after application) [kg/ha] | Ø NO3-N amount in soil (nitrification [3]; 6 weeks after application) [kg/ha] | Ø NH4-N amount in soil (nitrification [3]; 8 weeks after application) [kg/ha] | Ø NO3-N amount in soil (nitrification [3]; 8 weeks after application) [kg/ha] | Ø NO3 amount in the basis of the stem of rape plants (rape plants; 2 weeks after application) [ppm] | Ø NO3 amount in the basis of the stem of rape plants (rape plants; 4 weeks after application) [ppm] | Ø NO3 amount in the basis of the stem of rape plants (rape plants; 6 weeks after application) [ppm] | Ø NO3 amount in the basis of the stem of rape plants (rape plants; 8 weeks after application) [ppm] | other results
Cc1cn[nH]c1C.O=P(O)(O)O [3,4-Dimethylpyrazole phosphate, 3,4-dimethylpyrazolium dihydrogen Phosphate] | 31 | – | – | – | – | – | – | – | – | – | – | – | – | – | – | – | – | – | –
Cc1c[nH]nc1C [3,4-Dimethylpyrazole, 3,4-dimethylpyrazole] | 100 | 88 | 61 | 48 | 34 | 27 | 82 | 54 | 70 | 43 | 71 | 44 | 37 | 28 | 8105 | 6720 | 4899 | 4454 | biological effectiveness (in words) (nitrification [3]): as good as or better than that of DCD; grain produce of winter wheat (winter wheat; location 2 (lean clay)): 97.8 dt/ha
Cc1cc[nH]n1.O=P(O)(O)O [3-Methylpyrazole phosphate, reference compound] | 55 | – | – | – | – | – | – | – | – | – | – | – | – | – | – | – | – | – | –
Cc1cc[nH]n1 [3-Methylpyrazole, reference compound] | 100 | 90 | 58 | 45 | 27 | 22 | – | – | – | – | – | – | – | – | – | – | – | – | –
Cc1[nH]ncc1Cl.O=P(O)(O)O [4-Chloro-3-methylpyrazole phosphate, 4-chloro-3-methylpyrazolium dihydrogen Phosphate] | 92 | 91 | 62 | 53 | 45 | 27 | – | – | – | – | – | – | – | – | – | – | – | – | –
Cc1n[nH]cc1Cl [4-Chloro-3-methylpyrazole, 4-chloro-3-methylpyrazole] | 100 | 88 | 66 | 48 | 32 | 21 | 115 | 61 | 79 | 50 | 76 | 39 | 40 | 28 | 8112 | 6629 | 4774 | 4276 | biological effectiveness (in words) (nitrification [3]): as good as or better than that of DCD; grain produce of winter wheat (winter wheat; location 4 (loamy sand)): 56.0 dt/ha
N#CN=C(N)N [DCD, reference compound] | – | – | – | – | – | – | 87 | 47 | 68 | 44 | 82 | 35 | 39 | 29 | 8036 | 7022 | 4728 | 4274 | grain produce of winter wheat (winter wheat; location 2 (lean clay)): 94.3 dt/ha; grain produce of winter wheat (winter wheat; location 4 (loamy sand)): 52.6 dt/ha
Cc1nn(CO)cc1Cl [N-hydroxy-4Cl-3MP, N-hydroxymethyl-4-chloro-3-methylpyrazole] | – | 87 | 58 | 45 | 30 | 15 | – | – | – | – | – | – | – | – | – | – | – | – | –
Cc1cn(CO)nc1C [N-hydroxyl-3,4-DMP, N-hydroxymethyl-3,4-dimethylpyrazole] | – | 85 | 54 | 40 | 31 | 10 | – | – | – | – | – | – | – | – | – | – | – | – | –

— patent US6802882B2, “Nitrification inhibitors, and the use of polyacids which contain a nitrification inhibitor for the treatment of inorganic fertilizers” (BASF Aktiengesellschaft, priority 1996, dated 2004)
